The values below come from US9340577B2, “HLA binding motifs and peptides and their uses” (priority 1992, dated 2016).

What all share (assay): biochemical
In one assay the target is DR1 (DRB1*0101) (Homo sapiens, UniProt P01903+P01911, A100R/D57E/F55L/F60I/F76Y/I96L/L162R/M171V/P40L/Q125E/R42F/V115G/Y59C). Format: binding.
Another assay deals with DR4w4 (DRB1*0401) (Homo sapiens, UniProt P01903+P01911, A100K/A169T/F76Y/I96L/K127E/L162R/M171V/N62H/P40V/Q125Y/R42H/S133A/S149N/S66Y/V115G/V209L/W38E). The format is binding.
For the next assay, the target named is DR7 (DRB1*0701) (Homo sapiens, UniProt P01903+P01911, A100R/A102G/A103Q/D57E/D86V/E43K/F76Y/K127E/L162R/M171V/P40G/Q125H/Q99D/R33Q/R42Y/R54Q/S133A/S66F/T210M/V115G/Y107V/Y59L/Y89S). The format is binding.
A further assay concerns the target DRB1*0301 (Homo sapiens, UniProt P01903+P01911, A100K/A102G/A103R/A169T/F55Y/I96L/K41T/L162R/M171V/P40S/Q125H/Q178H/Q39Y/R42S/S66N/T106N/T262R/W38E/Y61H). The format is binding.
The target in the next assay is DRB1*0802 (Homo sapiens, UniProt P01903+P01911, A100R/A103L/A169T/F76Y/H45Y/I96F/K41T/L162R/M171V/P40S/Q125H/Q178H/Q39Y/Q99D/R218S/R42G/S66Y/V115G/W38E). Format: binding.
For a further assay, the target named is DRB1*0901 (Homo sapiens, UniProt P01903+P01911, A100R/A103E/D57H/D86V/F55Y/F60I/F76Y/I96F/K127E/L162R/M171V/P40D/Q125H/Q99R/R33Q/R42F/S133A/S66N/T210M/V115G/W38K/Y107V/Y59G/Y89S). The format is binding.
The target of a further assay is DRB1*1201 (Homo sapiens, UniProt P01903+P01911, A100R/A169T/D57E/D86V/F55L/H45Y/K41T/L162R/M171V/P40S/Q125H/Q178H/Q39Y/Q99D/R42G/S66L/T262R/V114A/V67L/W38E/Y59H/Y61H/Y89S). Format: binding.
A further assay has as its target DRB1*1302 (Homo sapiens, UniProt P01903+P01911, A100E/A169T/K41T/L162R/M171V/P40S/Q125H/Q178H/Q39Y/Q99D/R42S/S66N/T262R/V115G/W38E/Y61H). The format is binding.
The next assay deals with DRB1*1101 (Homo sapiens, UniProt P01903+P01911, A100R/A169T/A87E/I96F/K41T/L162R/M171V/P40S/Q125H/Q178H/Q39Y/Q99D/R42S/S66Y/T262R/V115G/W38E).
The target of another assay is DRB5*0101 (Homo sapiens, UniProt P01903+Q30154).
The target in a further assay is DRB1*1501 (Homo sapiens, UniProt P01903+P01911). The format is binding.
The next assay addresses DRB4*0101 (Homo sapiens, UniProt P01903+P13762, G164S). Format: binding.

Where two headings read alike, the source gives them in different places. No end group written: not given here.

DRB1*1101, sequence (P01903 26-254 limits assumed, other chains not shown): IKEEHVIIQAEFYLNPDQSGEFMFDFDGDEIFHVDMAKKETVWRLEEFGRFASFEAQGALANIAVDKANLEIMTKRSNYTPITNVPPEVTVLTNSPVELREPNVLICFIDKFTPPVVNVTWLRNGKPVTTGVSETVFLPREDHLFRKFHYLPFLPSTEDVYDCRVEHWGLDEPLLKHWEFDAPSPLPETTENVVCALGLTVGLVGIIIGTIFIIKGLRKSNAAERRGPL
DRB1*1302, sequence (P01903 26-254 limits assumed, other chains not shown): as above
DRB1*0301, sequence (P01903 26-254 limits assumed, other chains not shown): as above

Usually IC50 stands for the concentration that gives 50% inhibition. Consider `CC[C@H](C)[C@H](NC(=O)CNC(=O)[C@@H](NC(=O)[C@H](CCCCN)NC(=O)[C@H](Cc1ccc(O)cc1)NC(=O)[C@H](Cc1c[nH]c2ccccc12)NC(=O)[C@H](Cc1ccc(O)cc1)NC(=O)[C@@H](N)CC(C)C)[C@@H](C)O)C(=O)N[C@@H](CO)C(=O)N[C@@H](CC(N)=O)C(=O)N[C@H](C(=O)N[C@@H](CO)C(=O)N[C@@H](CCC(=O)O)C(=O)N[C@H](C(=O)N[C@@H](Cc1ccc(O)cc1)C(=O)O)C(C)C)[C@@H](C)CC` [Peptide 89.0009], for which the IC50 on DR1 (DRB1*0101) was 41 nM; against DR4w4 (DRB1*0401), 20 nM; against DR7 (DRB1*0701) it was 19 nM; at DRB1*0301, greater than 20000 nM; at DRB1*0802, 1440 nM; at DRB1*0901, 631 nM. In addition, the IC50 against DRB1*1201 was found to be 4620 nM; against DRB1*1302, 319 nM; at DRB1*1101 (Binding affinity DRB1 *1101) it was 6280 nM; on DRB5*0101 (Binding affinity DRB5 *0101), 634 nM.
For the molecule `CC[C@H](C)[C@H](NC(=O)[C@H](Cc1c[nH]cn1)NC(=O)[C@H](C)NC(=O)[C@H](Cc1ccc(O)cc1)NC(=O)[C@H](CC(C)C)NC(=O)[C@@H](NC(=O)[C@H](Cc1ccccc1)NC(=O)[C@@H]1CCCN1C(=O)[C@H](CCC(N)=O)NC(=O)[C@@H](NC(=O)[C@H](CC(C)C)NC(=O)[C@@H](NC(=O)[C@H](CCCCN)NC(=O)[C@@H](N)Cc1ccccc1)[C@@H](C)O)[C@@H](C)CC)[C@@H](C)CC)C(=O)N[C@@H](CCC(N)=O)C(=O)O` [Peptide 89.0025], the IC50 against DR1 (DRB1*0101) is 27 nM; against DR4w4 (DRB1*0401) it was 728 nM; at DR7 (DRB1*0701), 882 nM; at DRB1*0301, greater than 20000 nM; on DRB1*0901 it was 97 nM; against DRB1*1201, 513 nM. The IC50 at DRB1*1501 amounted to 20 nM; at DRB4*0101, 9.6 nM; on DRB5*0101 (Binding affinity DRB5 *0101), 8430 nM.
On to `CSCC[C@H](NC(=O)[C@H](Cc1ccc(O)cc1)NC(=O)[C@H](Cc1ccc(O)cc1)NC(=O)[C@@H](NC(=O)[C@@H](N)CO)C(C)C)C(=O)N[C@H](C(=O)N[C@@H](CC(=O)O)C(=O)N[C@@H](C)C(=O)NCC(=O)N[C@H](C(=O)N[C@@H](Cc1c[nH]c2ccccc12)C(=O)N[C@@H](CC(=O)O)C(=O)N[C@@H](CCCCN)C(=O)N[C@H](C(=O)N[C@@H](C)C(=O)O)[C@@H](C)O)[C@@H](C)O)[C@@H](C)O` [Peptide 90.0182], for which the IC50 against DR1 (DRB1*0101) stood at 9.3 nM; against DRB1*0301, 328 nM; against DRB1*0802, 8460 nM; at DRB1*0901, 1600 nM; against DRB1*1201, 708 nM; at DRB1*1302 it was 14 nM. The IC50 at DRB1*1501 was 43 nM; against DRB4*0101, 7 nM; at DRB1*1101 (Binding affinity DRB1 *1101) it was 2880 nM; at DRB5*0101 (Binding affinity DRB5 *0101) it was greater than 20000 nM.
On to ESDMAFEYALLADSN [Peptide 90.0055], for which the IC50 against DR1 (DRB1*0101) is 57 nM; on DR4w4 (DRB1*0401), 24 nM; on DRB1*0301, 591 nM; against DRB1*0802, 5730 nM; on DRB1*0901 it was 826 nM; on DRB1*1201, 16300 nM. For the same molecule, the IC50 against DRB1*1302 was found to be 1850 nM; at DRB1*1501 it was 428 nM; against DRB4*0101, 165 nM; at DRB1*1101 (Binding affinity DRB1 *1101) it was 4680 nM.
As for IHFIQGAVISFVNST [Peptide 89.0037], the IC50 was 31 nM against DR1 (DRB1*0101); 5130 nM against DR4w4 (DRB1*0401); 338 nM on DR7 (DRB1*0701); greater than 20000 nM against DRB1*0301; 11700 nM against DRB1*0802; 732 nM on DRB1*1201. In addition, the IC50 at DRB1*1501 is 6980 nM; at DRB4*0101, 155 nM; at DRB1*1101 (Binding affinity DRB1 *1101), greater than 20000 nM; on DRB5*0101 (Binding affinity DRB5 *0101) it was greater than 20000 nM.
With IIHLKGDPNSLKCLR [Peptide 90.0228], the IC50 at DR4w4 (DRB1*0401) is 121 nM; at DR7 (DRB1*0701), 2540 nM; against DRB1*0301 it was 11 nM; against DRB1*0802, 877 nM; at DRB1*0901, greater than 20000 nM; against DRB1*1201, 5830 nM. The IC50 was 163 nM against DRB1*1302, 1900 nM at DRB4*0101, greater than 20000 nM at DRB1*1101 (Binding affinity DRB1 *1101) and 1330 nM at DRB5*0101 (Binding affinity DRB5 *0101).
For the molecule KSLFGMSLMKFLQGS [Peptide 89.0020], the IC50 on DR4w4 (DRB1*0401) is 573 nM; against DR7 (DRB1*0701), 21 nM; at DRB1*0301, greater than 20000 nM; against DRB1*0901 it was 310 nM; against DRB1*1201, 944 nM; on DRB1*1302, 4670 nM. In addition, the IC50 was found to be 2110 nM against DRB1*1501, 449 nM at DRB4*0101 and 535 nM on DRB1*1101 (Binding affinity DRB1 *1101).
Take LKLFLKGVPKKNCIL [Peptide 89.0054]: the IC50 amounted to 200 nM on DR1 (DRB1*0101); 2910 nM against DR4w4 (DRB1*0401); 9900 nM at DRB1*0301; 341 nM at DRB1*0802; 2010 nM against DRB1*0901; 1730 nM at DRB1*1201. For the same molecule, the IC50 was 3380 nM against DRB1*1302, 3350 nM on DRB1*1501 and 619 nM against DRB4*0101.
Turning to LKSFLKGTPKKNCLV [Peptide 89.0035], the IC50 was 30 nM against DR1 (DRB1*0101); 320 nM at DR4w4 (DRB1*0401); greater than 20000 nM against DRB1*0301; 208 nM against DRB1*0802; 2690 nM against DRB1*0901; 3230 nM on DRB1*1201. For the same molecule, the IC50 came to 430 nM on DRB1*1302, 5190 nM at DRB1*1501 and 4740 nM against DRB4*0101.
NCILLYGAANTGKSL [Peptide 89.0017]: the IC50 was 81 nM at DR1 (DRB1*0101); greater than 20000 nM against DR7 (DRB1*0701); greater than 20000 nM on DRB1*0301; 2690 nM on DRB1*0802; greater than 20000 nM on DRB1*1201; 2120 nM at DRB1*1302. Further, the results for the IC50 against DRB4*0101, at DRB1*1101 (Binding affinity DRB1 *1101) and on DRB5*0101 (Binding affinity DRB5 *0101) were 525 nM, 5780 nM and 442 nM, respectively.
Consider RLNVCQDKILTHYEN [Peptide 90.0160], for which the IC50 on DR1 (DRB1*0101) turned out to be 2.7 nM; at DR4w4 (DRB1*0401) it was 3.5 nM; on DR7 (DRB1*0701), 7980 nM; against DRB1*0301, 307 nM; on DRB1*0901 it was 50 nM; on DRB1*1201, 256 nM. Further, the IC50 at DRB1*1302 was 96 nM; at DRB1*1501 it was 3800 nM; against DRB4*0101, 0.61 nM; at DRB1*1101 (Binding affinity DRB1 *1101), 372 nM; on DRB5*0101 (Binding affinity DRB5 *0101) it was 1640 nM.
For RLTVAKGLSTLLHVP [Peptide 89.0028], the IC50 against DR1 (DRB1*0101) amounted to 46 nM; on DR4w4 (DRB1*0401) it was 53 nM; against DR7 (DRB1*0701), 180 nM; at DRB1*0301, 14500 nM; on DRB1*0802 it was 501 nM; on DRB1*0901, 399 nM. For the same molecule, the IC50 was found to be 274 nM on DRB1*1201, 675 nM against DRB1*1302, 406 nM against DRB4*0101 and 232 nM at DRB1*1101 (Binding affinity DRB1 *1101).
Consider WKAVRHENVLYYKAR [Peptide 90.0230], for which the concentration for half-maximal inhibition (IC50) on DR1 (DRB1*0101) is 164 nM; at DR4w4 (DRB1*0401) it was 718 nM; against DR7 (DRB1*0701) it was 666 nM; against DRB1*0301, 76 nM; against DRB1*0802 it was 613 nM; on DRB1*1201, 415 nM. In addition, the IC50 against DRB1*1302 turned out to be 264 nM; at DRB4*0101 it was 189 nM; on DRB1*1101 it was 2120 nM; against DRB5*0101, 762 nM.
WKLIRMECALLYTAK [Peptide 90.0199]: the IC50 against DR7 (DRB1*0701) was 3160 nM; at DRB1*0301, 141 nM; against DRB1*0802, 2700 nM; against DRB1*0901 it was 4000 nM; against DRB1*1201, 159 nM; at DRB1*1302 it was 98 nM. Further, the IC50 against DRB1*1501 came to 509 nM; on DRB4*0101, 62 nM; at DRB1*1101 (Binding affinity DRB1 *1101) it was 2000 nM; at DRB5*0101 (Binding affinity DRB5 *0101), 3630 nM.
